These results are taken from US8710064B2, “2-aryl-4-quinazolinones and their pharmaceutical compositions” (China Medical University, priority 2011, dated 2014).

Each structure is given as a SMILES string.

The subject of one series is C6 glioma cells. Kind of series: G1 synchronized by Ara-C, flow cytometry. The class given is cell-based, rat. Conditions: 41.6 nM Ara-C for 12 hours. How it is done:
At indicated time points (0, 6, 12 and 24 hr), >10^6 cells were collected and fixed in 70% ethanol over 1 hour at −20° C. After staining with PI as described, DNA content of ten thousand cells was analyzed by flow cytometry.
To investigate the influence of MJ-66 on normal glia such as human glia cell line SVGP12 and rat primary glia cells, cells were treated with different concentrations of MJ-66 in vitro (0.00625, 0.0125, 0.025, 0.05, 0.1 and 1 μM) for different time durations (0, 6, 12 and 24 hours) and the cell viability was assessed by MTS assay. Cells alone or treated with DMSO were used as control. […] However, most glia cells in animals are static and their proliferation rate is almost silent. Therefore, cytosine arabinoside (Ara-C), a DNA synthesis inhibitor, was further used to inhibit glioma cell proliferation and glioma cells were then treated with MJ-66 or DMSO as described in “General materials and methods”. Specifically, after C6 glioma cells were treated with 41.6 nM Ara-C for 12 hours, and then treated with solvent (DMSO) or 60 nM MJ-66 for 0, 6, 12 and 24 hours, the cell cycle distributions and DNA content of the cells were monitored by flow cytometry with propidium iodide staining C6 glioma cells treated with 41.6 nM Ara-C for 12 hours (12 hr) were detected by flow cytometry with propidium iodide staining as control.
On the technique in general: A flow cytometer gives signals particle by particle.

The subject of the next series is HSC-3. Kind of series: trypan blue exclusion assay, HSC-3 cells. The class given is cell-based, human. Conditions: HSC-3 human squamous carcinoma; trypan blue exclusion assay. As to the method: The HSC-3 (human oral squamous cell carcinoma) were cultured in 1:1 Dulbecco's Modified Eagle's Medium (DMEM) and Ham's Nutrient Mixture F-12, containing 10% FBS (HyClone, Logan, Utah, USA), 100 U/ml penicillin, 100 μg/ml streptomycin (Gibco BRL, Rockville, Md., USA) and 2 mM glutamine (Merck, Darmstadt, Germany).
(§1) Cell viability was also determined by trypan-blue exclusion assay. Cells were seeded in 6-well plates (2×10^4/well) for trypan blue exclusion assay, and incubated for 24 hours at 37° C. Culture medium containing test compound or DMSO (0.006%) was added to each well, and cells were incubated at 37° C. At indicated time points (0, 24, 48, 72 and 96 hr), cells were suspended with 0.05% trypsin-EDTA, and stained with trypan-blue dye (0.4%) (Sigma). The cell viability was evaluated by the percentage of death relative to the total cell, and cell growth curve was determined by number of live cells relative to the total number of cells.
(§2) The anti-proliferation effects of Compounds 17-31 on M21, CH27, H460, Hep3B and HSC-3 cells were evaluated by the trypan blue exclusion assay.

Another series relates to Hep3B. Kind of series: trypan blue exclusion assay, Hep3B cells. Conditions: Hep3B human hepatoma. The class given is cell-based. How it is done:
(§3) Hep3B (human hepatocellular carcinoma) and H460 (lung non-small carcinoma) cells were grown in monolayer culture in Dulbecco's modified Eagle's medium (DMEM) (Life Technologies, Rockville, Md., USA) containing 5% fetal bovine serum (HyClone, Logan, Utah, USA), 100 U/ml penicillin and 100 μg/ml streptomycin (Gibco BRL, Rockville, Md., USA) and 2 mM glutamine (Merck, Darmstadt, Germany).
as §1, §2

Series [1] relates to U87 human glioma cell lines. In words: MTS cell viability assay, U87 glioma cells. The class given is cell-based. Conditions: 48 hours, mean±SEM, n=3. How it is done:
(§4) The human glioma cell lines U87, U251, T98G, U373, and rat glioma cell line RT2 provided by Dr. Michael Hsiao (Genomics Research Center, Academia Sinica, Taiwan) were cultured in Dulbecco's Modified Eagle medium (DMEM) (Caisson) supplemented with 10% fetal bovine serum (FBS) (Sigma-Aldrich), 2 mM L-glutamine (Caisson), 100 U/ml penicillin, and 100 μg/ml streptomycin (Caisson). The rat glioma C6 cell line provided by Dr. Shun-Fen Tzeng (National Cheng Kung University, Taiwan) was cultured in DMEM/F12 (Caisson) supplemented with 10% fetal bovine serum, 2 mM L-glutamine, 100 U/ml penicillin, and 100 μg/ml streptomycin. The human normal glia cell line SVGP12, kindly provided by Dr. Michael Hsiao, was cultured in Minimum Essential Medium (MEM) (Invitrogen) supplemented with 10% fetal bovine serum, 2 mM L-glutamine, 100 U/ml penicillin, and […]. Primary glia cells were prepared by surgery. Cerebral cortices without meninges were dissected from postnatal (P0-P2) Sprague-Dawley (SD, NCKU Laboratory Animal Center) rats and dissociated in 0.05% trypsin-EDTA (Biowest) at 37° C. for 10 min. Culture medium was added and pipetted for several times, and supernatant was removed after a centrifugation at 1,000 rpm for 5 minutes. […]
(§5) Cell proliferation was determined by MTS (tetrazolium compound, 3-(4,5-dimethylthiazol-2-yl)-5-(3-carboxymethoxyphenyl)-2-(4-sulfophenyl)-2H-tetrazolium) assay (Promega). […] The absorbance of soluble formazan was measured at 490 nm with microplate reader (Molecular device). The cell viability was determined by the percentage of the absorption relative to untreated control. […]
(§6) To investigate the effect of 2-aryl-4-quinazolinone in accordance with the present invention on cell proliferation, glioma cell lines were treated with MJ-66, MJ-68, or MJ-78. […] The cell viability of each group was analyzed by MTS assay (mean±SEM, n=3).
In general terms: Tetrazolium assays rely on reduction of a dye to a coloured formazan, in cell work by metabolically active cells.

The test system of a further series is M21. Kind of series: trypan blue exclusion assay, M21 cells. The class given is cell-based. To be noted: Homo sapiens; M21 skin cancer; trypan blue exclusion assay; read-out: IC50 M21. As to the method: M21 cell line (human malignant melanoma) was provided by Dr. Feng-Yao Tang (China Medical University, Taiwan). Cells were grown in monolayer culture in RPMI-1640 medium, Eagle's minimum essential medium or Dulbecco's modified Eagles medium (Invitrogen Corporation, Grand Island, N.Y., USA) containing 10% fetal bovine serum (FBS; HyClone, Logan, Utah, USA), 100 U/ml penicillin and 100 μg/ml streptomycin (Gibco BRL, Rockville, Md., USA).
as §1, §2

The test system of a further series is C6 rat glioma. In words: MTS cell viability assay, C6 glioma cells. The class given is cell-based. Conditions: 48 hours, mean±SEM, n=3. How it is done:
as §4, §5, §6

The test system of series [2] is M21, CH27, H460, Hep3B and HSC-3 cells. In words: trypan blue exclusion assay, cancer cell panel (summary). The class given is cell-based. To be noted: summary of Table 2. How it is done:
as §1, §2

A further series concerns CH27. Kind of series: trypan blue exclusion assay, CH27 cells. The class given is cell-based. To be noted: CH27 human lung squamous carcinoma. As to the method:
CH27 cells (Human lung squamous carcinoma) were grown in monolayer culture in Dulbecco's modified Eagle's medium (DMEM; Life Technologies, Rockville, Md., USA) containing 5% FBS (HyClone, Logan, Utah, USA), 100 U/ml penicillin, […] streptomycin (Gibco BRL, Rockville, Md., USA) and 2 mM glutamine (Merck, Darmstadt, Germany).
as §1, §2

In another series the test system is H460. Kind of series: trypan blue exclusion assay, H460 cells. The class given is cell-based. Conditions: NCI-H460, H460 human non-small cell lung cancer. How it is done:
as §3, §1, §2

As to `Nc1ccn([C@@H]2O[C@H](CO)[C@@H](O)[C@@H]2O)c(=O)n1` [Ara-C, cytosine arabinoside, reference compound], the “cell cycle state of C6 glioma cells” value with C6 glioma cells is recorded as “G1 arrest”.

Take `O=c1[nH]c(-c2cccc3ccccc23)nc2ccc(N3CCCCC3)cc12` [Compound 26, 6-(Piperidin-1-yl)-2-(naphthalen-1-yl)quinazolin-4-one]: the IC50 with HSC-3 was found to be 1.73 µM; in the series with Hep3B it was 7.24 µM; in [1], 0.54 ± 0.24 µM; in the series with M21, 1.59 µM; with C6 rat glioma, 0.47 ± 0.16 µM; in the series with CH27, 0.362 µM. In the series with H460, this compound gave an IC50 of 0.376 µM. Further, the “cytotoxic effects toward cancer cells” value in [2] is listed as “exhibited cytotoxic effects”.

As a reminder, the IC50 is the concentration that inhibits the measured activity by half.
